Experiments:
H82 xenograft tumors = assay: Xenograft tumor model, small-cell lung cancer; assay type: in vivo, mice; settings: 40 mg/kg twice daily, oral, vs vehicle
Procedure: (§1) FIGS. 4A-4H. Pharmacokinetics and anti-tumor growth activity of AOH1996 in vivo. FIG. 4A: After oral administration, the plasma concentrations of AOH1996 from three male and three female ES1^e/SCID mice at the indicated time points were averaged and graphed ±S.D. The inset contains PK parameters determined by a standard noncompartmental method. FIG. 4B: A similar PK study of AOH1996 was performed in dogs. FIGS. 4C-4E: Mice bearing the xenograft tumors of neuroblastoma (FIG. 4C: SK-N-BE(2)c), breast cancer (FIG. 4D: MDA-MB-468), and small-cell lung cancer (FIG. 4E: H82) were given vehicle only (black) or 40 mg/kg of AOH1996 (grey) twice daily immediately after the first measurement. Tumor sizes were measured by a dial caliper each week. Tumor volumes (0.4×L×W^2) were averaged and graphed ±S.E. (*, P<0.01). FIG. 4F: Animal body weight was monitored throughout the studies as an indicator of toxicity. […] FIG. 4G: The levels of phosphor-Chk1 (pChk1) and γH2A.X in SK-N-BE(2)c derived tumor samples were analyzed by IHC. […] The p values determined by the Log-rank (Mantel-Cox) test between combination treatment and each of the control groups are p=0.0003 (Combination vs. NoRx), p=0.005 (Combination vs. AOH1996 alone), and p=0.024 (Combination vs. CPT-11 alone).
(§2) In vivo tumor model. […] Tumor size and animal weight were measured weekly. […]

[1] = test system: SK-N-DZ neuroblastoma cells; assay: Apoptosis (sub-G1, TUNEL assay), cancer cells; assay type: cell-based, human; settings: 500 nM, 24 h
Procedure: FIGS. 3A-3D. Therapeutic properties of AOH1996. FIG. 3A: Normal cells (7SM0032) or cancer cells (SH-SY5Y and SK-N-BE(2)c) cells were fixed, stained with PI, and analyzed by flow cytometry following treatment with 500 nM AOH1996 for the indicated time. FIG. 3B: SK-N-DZ neuroblastoma cells and nonmalignant 7SM0032 stem cells were incubated with 500 nM AOH1996 for 24 h. Then, after being fixed on slides, cell apoptosis were analyzed by a TUNEL assay. Left: TMR fluorophore attached to the free ends of DNA indicates cells undergoing apoptosis. DAPI stained nuclei also shown. Right: Average abundance ±S.D. of apoptotic 7SM0032 (black histogram) and SK-N-DZ (grey histogram) cells relative to the total number of cells are shown in 5 randomly selected fields. […] The relative number of colonies determined in triplicates for each treatment condition were averaged and graphed ±SDs (*, P<0.01). […] Cell growth was measured as the percentage of cell confluence by imaging every 6 h for a total of 48 h.
Cell apoptosis was measured on a chamber slide at a seeding density of 1×10^5/mL. After treatment with 500 nM AOH1996 for 24 h, cells were fixed and analyzed by a TUNEL assay using the TMR red in situ cell death detection kit (Roche Diagnostics).

[2] = test system: SK-N-AS derived xenograft tumors; assay: Survival of mice bearing xenograft tumors, AOH1996 with CPT-11; assay type: in vivo, ES1^e/SCID mice; settings: AOH1996 80 mg/kg oral 8 d; CPT-11 15 mg/kg i.p. 3 d; vs untreated
Procedure: as §1, with “alone). […]” for “alone).”
as §2

[3] = test system: nonmalignant cells, including human PBMCs, small airway epithelial cells (hSEAC), and neural crest stem cells (7SM0032); assay: Toxicity to nonmalignant cells

Question: Which results are given for COc1cccc(Oc2ccccc2NC(=O)CNC(=O)c2cccc3ccccc23)c1 [AOH1996, N-(2-((2-(3-methoxyphenoxy)phenyl)amino)-2-oxoethyl)-1-naphthamide]?
Answer: tumor burden (H82 xenograft tumors): significantly reduced tumor burden; apoptosis (sub-G1 population, TUNEL positivity) [1]: induced apoptosis; increase of median survival [2]: ~11.5%; difference in sensitivity between cancer and normal cells [3]: 30 fold; concentration up to which not significantly toxic ([3]; human PBMCs, hSEAC, 7SM0032): at least 10 μM

Source: patent publication US20250171404A1, “PCNA INHIBITORS AND USES THEREOF” (CITY OF HOPE, priority 2022, published 2025)
